Reference: patent US8242113B2, “Oxazolidinone derivatives with cyclic amidoxime or cyclic amidrazone pharmaceutical compositions thereof” (Legochem Biosciences, Inc., priority 2008, dated 2012)
In brackets after ≈: the same amount, converted by molar mass. Read-outs that look alike come from different tables or passages of the source.

Columns and labels:
[1] = molecular target: T1, monoamine oxidase B (MAO B) (Homo sapiens, UniProt P27338); assay: MAO inhibition (MAO-GLO assay); type: biochemical; conditions: MAO-GLO kit, compounds at 3.9-500 uM; read-out: MAOB
T1 construct: purchased Sigma-Aldrich (USA)
T1 sequence (P27338 1-520): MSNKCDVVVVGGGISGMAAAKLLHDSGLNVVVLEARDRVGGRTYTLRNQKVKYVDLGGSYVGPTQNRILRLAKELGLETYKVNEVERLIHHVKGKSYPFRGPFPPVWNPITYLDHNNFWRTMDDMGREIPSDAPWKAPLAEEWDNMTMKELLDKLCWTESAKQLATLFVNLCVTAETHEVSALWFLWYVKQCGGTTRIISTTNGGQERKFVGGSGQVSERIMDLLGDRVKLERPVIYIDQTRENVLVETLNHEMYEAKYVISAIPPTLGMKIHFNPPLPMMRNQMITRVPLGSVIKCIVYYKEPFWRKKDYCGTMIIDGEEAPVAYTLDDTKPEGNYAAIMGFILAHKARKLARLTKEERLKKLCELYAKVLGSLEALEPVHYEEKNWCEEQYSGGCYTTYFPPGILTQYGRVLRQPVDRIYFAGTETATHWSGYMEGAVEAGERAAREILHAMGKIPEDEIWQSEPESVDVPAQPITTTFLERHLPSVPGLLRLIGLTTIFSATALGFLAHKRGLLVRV
Experimental: (§1) The oxazolidinone derivatives according to the present invention synthesized in the examples were tested for inhibition of monoamine oxidase A (MAO A) and monoamine oxidase B (MAO B). MAO-GLO assay kit was purchased from Promega (USA) and MAO A and MAO B enzymes were purchased from Sigma-Aldrich (USA). From the aldehyde product resulting from the action of the MAO enzyme on the amine group of the substrate, luciferin methyl ester is produced. The luciferin detection reagent is then added to inactivate the MAO enzymes. The esterase and the luciferase included in the reagent oxidize luciferin, thereby emitting light. The light emission is detected to measure the activity of MAO. The light emission was detected using LEADseeker (Amershan Bioscience, Sweden). MAO activity was measured in the presence of the compounds according to the present invention at 3.9-500 uM and compared with the non-treated control group. Linezolid was used as a comparison compound. For the measurement of the MAO inhibition activity of the compounds represented by Chemical Formula 1, the IC50 value, i.e., the concentration of the compounds at which the enzymatic activity is inhibited by 50% (This value is related with the inhibition constant Ki), can be determined. The concentration of the inhibitor at which the rate of hydrolysis of the substrate is reduced to 50% (i.e., the IC50 value) can be determined from a log plot of the relative rate of hydrolysis (as compared to the non-inhibited control group) versus the concentration of the compounds of Chemical Formula 1.
(§2) The MAO inhibition effect of the compounds of Chemical Formula 1 was measured by determining the inhibition constant Ki. Ki=IC50/{1+(┌S┐/Km)} Equation 1
(§3) In Equation 1, Km is the Michaelis-Menten constant, i.e., the concentration of the substrate at which the rate of enzymatic reaction is half of the maximum, and IC50 is the concentration of the inhibitor at which the rate of the hydrolysis of the substrate is reduced by 50%. The IC50 value was measured by plotting a log plot of the relative rate of hydrolysis (as compared to the non-inhibited control group) versus the concentration of the compounds of Chemical Formula 1. GraFit statistical analysis program (version 5.0.12) purchased from Erithacus Software was used.

[2] = molecular target: T2, monoamine oxidase A (MAO A) (Homo sapiens, UniProt P21397); assay: MAO inhibition (MAO-GLO assay); type: biochemical; conditions: MAO-GLO kit, compounds at 3.9-500 uM; read-out: MAOA
T2 construct: purchased Sigma-Aldrich (USA)
T2 sequence (P21397 1-527): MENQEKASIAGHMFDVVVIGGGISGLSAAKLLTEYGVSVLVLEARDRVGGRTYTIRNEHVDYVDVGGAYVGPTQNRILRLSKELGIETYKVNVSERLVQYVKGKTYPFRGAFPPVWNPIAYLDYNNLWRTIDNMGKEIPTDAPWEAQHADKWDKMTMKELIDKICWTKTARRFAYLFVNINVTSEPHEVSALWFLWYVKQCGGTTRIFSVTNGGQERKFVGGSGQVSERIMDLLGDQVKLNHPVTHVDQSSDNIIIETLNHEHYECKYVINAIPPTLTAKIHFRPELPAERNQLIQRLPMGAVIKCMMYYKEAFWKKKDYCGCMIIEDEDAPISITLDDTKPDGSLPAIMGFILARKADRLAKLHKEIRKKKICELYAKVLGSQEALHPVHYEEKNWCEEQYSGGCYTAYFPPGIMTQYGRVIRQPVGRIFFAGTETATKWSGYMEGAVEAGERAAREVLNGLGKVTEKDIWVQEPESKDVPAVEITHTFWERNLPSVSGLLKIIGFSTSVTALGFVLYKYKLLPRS
Experimental: as §1, §2, §3

[3] = system: linezolid- and vancomycin-resistant Enterococcus faecalis (LVRE); assay: In vitro antibacterial activity, broth microdilution (MIC90); conditions: read-out: Antibacterial activity MIC90, LVRE
Excerpt: (§4) MIC90 measurement was made according to the broth microdilution method based on the CLSI document [Clinical and Laboratory Standards Institute Document.
(§5) The test compounds in DMSO solution were further diluted 20-fold with sterile distilled water.

[4] = Measurement of solubility in water by 1H NMR; type: physicochemical; conditions: for solubility at 30 min: water, thermodynamic from solid
Experimental: Water solubilities of methanesulfonates (MSA) of representative compounds among the oxazolidinone derivatives of Chemical Formula 1 were measured.
Solubility measurement was done by ^1H NMR according to the following method. First, a methanesulfonate (100 mg) of the compound was added to D2O (0.5 mL). After preparing a saturated solution by vigorous shaking for 30 minutes, the solution was filtered and 0.3 mL is taken therefrom. A reference compound solution (0.3 mL) (In this test example, DMSO diluted with D2O was used.) with an exactly known concentration was added thereto. From the ^1H NMR spectrum of the solution, the integral ratio of the sample peak to the reference (DMSO) peak was calculated. Since the concentration of the reference solution is known, the mols of the sample can be calculated from the integral ratio. Then, the solubility of the sample was calculated.

[5] = Cytotoxicity measurement by MTT assay; type: cell-based; conditions: Chinese hamster
Excerpt: The MTT assay is a […], colorimetric assay for mammalian cell survival and cell proliferation. It depends on the reduction of tetrazolium salt MTT by the mito-chondrial succinate dehrogenase of viable cells to form a blue formazan product. The assay measures cell respiration, and the amount of formazan product to the number of living cells present in culture. In this test, Chinese hamster ovary cells (CHO-K1) were purchased from ATCC (USA). Subcultured CHO cells were detached from the culture flask by treating with trypsin-EDTA solution, and seeded on a 96-well microplate, with 5000 cells per each well. After culturing for 24 hours in a 37° C., 5% CO2 incubator, the cells were treated with the oxazolidinone derivatives according to the present invention synthesized in the above examples, at 7 different concentrations. After further culturing for 48 hours in a 37° C., 5% CO2 incubator, 15 uL of […] MTT solution was added to each well. The cells were further incubated in the 37° C., 5% CO2 incubator for about 2 hours. Then, the culture medium was discarded and 100 uL of DMSO solution was added to each well. After agitating the microplate for 30 minutes, absorbance was measured at 550 nm using Spectramax plus 190 plate reader (Molecular Devices, USA). The absorbance decrease of the compound-treated groups compared to the non-treated control group is an indication of the decrease of surviving cells, which enables the measurement of the cytotoxicity of the compounds. The CC50 value, i.e., the concentration at which the cell proliferation is reduced to 50%, of the compounds according to the present invention was computed using the GraFit statistical analysis program (version 5.0.12) purchased from Erithacus Software after calculating the percentages of the absorbance at various concentrations as compared to the control group.

[6] = system: methicillin-resistant Staphylococcus aureus (MRSA); assay: In vitro antibacterial activity, broth microdilution (MIC90); conditions: read-out: Antibacterial activity MIC90, MRSA
Excerpt: as §4, §5

| Compound | IC50 [1] [µM] | IC50 [2] [µM] | MIC [3] [µg/mL] | solubility at 30 min [4] [mg/mL] | CC50 at 48 h [5] [µM] | MIC90 [6] [µg/mL] | % solubility in water ([4]; methanesulfonate (MSA) of the compound, saturated solution in D2O, linezolid as reference) | solubility at 30 min ([4]; read-out: Solubility of methanesulfonate in water) [mg/mL] | CC50 at 48 h ([5]; CHO-K1 cells, 48 hours treatment, MTT, read-out: CC50) [µM] |
| --- | --- | --- | --- | --- | --- | --- | --- | --- | --- |
| CN1CCN(c2ccc(N3C[C@H](Cn4ccnn4)OC3=O)cc2F)C=N1 [Compound 83] | 207 | 19 | 16 (≈ 44.5 µM) | 117 (≈ 326000 µM) | > 130 | 1 (≈ 2.78 µM) | – | – | – |
| CN1CCN(c2ccc(N3C[C@H](CNc4ccon4)OC3=O)cc2F)C=N1 [Compound 89] | > 250 | 5.2 | 8 (≈ 21.4 µM) | – | – | 0.5 (≈ 1.34 µM) | (13%) | 129 (≈ 345000 µM) | > 130 |
| CN1CCN(c2ccc(N3C[C@H](CO)OC3=O)cc2F)C=N1 [Compound 94] | 176 | 4 | 64 (≈ 208 µM) | 136 (≈ 441000 µM) | > 130 | 1 (≈ 3.24 µM) | – | – | – |
| COC(=S)NC[C@H]1CN(c2ccc(N3C=NN(C=O)CC3)c(F)c2)C(=O)O1 [Compound 53] | 58 | 24 | 8 (≈ 20.2 µM) | – | > 130 | 0.5 (≈ 1.26 µM) | – | – | – |
